Earlier results on 1 compound are cited in patent US6107321A, “Diazabicyclooctane derivatives having selective 5-HT1Dalpha agonist activity” (Merck Sharp & Dohme Ltd., priority 1995, dated 2000).

In data set [1] the test system is human 5-HT1D.sbsb.α and 5-HT1D.sbsb.β receptor subtypes. The conditions noted are these: cf. WO-A-91/17174, Table 1.
For the next data set, the system named is humans. The conditions noted are these: therapeutic doses.

Regarding `CNS(=O)(=O)Cc1ccc2[nH]cc(CCN(C)C)c2c1` [sumatriptan], the “discrimination between the human 5-HT1Dα and 5-HT1Dβ receptor subtypes” value in data set [1] is recorded as “barely discriminates”. Besides, the adverse cardiovascular events result in the data set with humans is given as “certain adverse cardiovascular events”.
